# Patent US9695219B2, “Polypeptide having antibacterial activity and angiogenesis-inducing activity and wound-healing drug containing said polypeptide” (priority 2009, dated 2017)
# Where a SMILES comes first, the peptide text is derived from it. [ ]: non-standard residue; d: D form.
# Tests used:
# [1] = tested on: Staphylococcus epidermidis; assay: MIC measurement, broth microdilution; assay type: cell-based; settings: 37° C. for 20 hours; tested twice, first/second value where not matched
# Procedure: (§1) Further, with respect to not only the above-described strains but also various other strains, the “minimum inhibitory concentration (MIC)” was measured as follows. MIC is the lowest concentration of an agent that may inhibit the growth of a bacterium. MIC is used as a parameter for the efficacy of an antibacterial agent, for the strength of bacterial sensitivity, or the like. The bacteria can grow (proliferate) when the concentration is not higher than MIC, and cannot grow when the concentration is higher than MIC. Its measurement is carried out according to a method defined as a standard method by Japanese Society of Chemotherapy or CLINICAL AND LABORATORY […] (CLSI), but, in this Example, its measurement was carried out by a broth microdilution method in accordance with “M100-S17/M7-A7” (Performance Standards for Antimicrobial Susceptibility Testing; Seventeenth Informational Supplement, Vol. 27 No. 1) published by CLSI on January, 2007. That is, sensitivity test of agents was carried out using a microtiter plate or test tubes.
# (§2) The bacteria were cultured in liquid media for 4 to 6 hours, and thereafter absorbances at A600 were measured. Bacterial suspensions were diluted with Mueller-Hinton broth (MHB) according to McFarland #0.5. Each strain was added so as to attain about 10^5 CFU/ml (final concentration). Each peptide was prepared to an optional concentration, and the solutions were serially diluted from the concentration. The polypeptide at each concentration stage was added to a microplate or test tubes, and the bacterial suspension was added thereto. Chloramphenicol, amphotericin B, ciprofloxacin, meropenem (MEPM), ciprofloxacin (CPFX), tobramycin (TOB) and oxacillin (OX) were used as positive controls. The plate was incubated at 37° C. for 20 hours, and the lowest concentration where bacterial growth was inhibited was regarded as the minimum inhibitory concentration.
# Escherichia coli = assay: MIC measurement, broth microdilution; assay type: cell-based; settings: 37° C. for 20 hours; tested twice, first/second value where not matched
# Procedure: as §1, §2
# [2] = tested on: Pseudomonas aeruginosa (clinical strain 9); assay: MIC measurement, broth microdilution; assay type: cell-based; settings: 37° C. for 20 hours; tested twice, first/second value where not matched
# MSSA (clinical strain 1) = assay: microbe, parasite or virus in culture; assay type: cell-based, Staphylococcus aureus; settings: 37° C. for 20 hours; tested twice, first/second value where not matched
# Procedure: as §1, §2
# [3] = tested on: Normal human dermal fibroblasts (NHDFs); assay: Collagen production test; assay type: cell-based; settings: 5-day culture
# Procedure: Normal human dermal fibroblasts (NHDFs) were plated in a 48-well plate. As a medium, Medium 106 containing 1% FBS was used. After culturing in an incubator at 37° C. under 5% CO2 for about 3 hours, the peptide or FGFb (Positive Control), which had been diluted with the medium to each concentration, was added, and the culturing was further continued. The medium was replaced with a medium containing the same additive on Day 3, and the culturing was continued for another 2 days.
# The amount of produced collagen was measured by using Semi-Quantitative Collagen Assay Kit.
# After the 5-day culture, the medium was removed by aspiration, and the cells were washed with cold PBS(−). Cold methanol/ethanol was added thereto and the plate was left to stand for 10 minutes at room temperature to fix the cells. The cells were washed twice with cold PBS(−). Then, a staining solution (Dye Solution) was added to each well, and the plate was left to stand at room temperature for 30 minutes. The staining solution was removed, and the cells were washed 4-5 times with deionized water. An extraction solution (Dye Extraction Solution) was added to each well to extract the dye, and the absorbances of the extract at 540 nm and 605 nm were measured.
# The amounts of collagen and noncollagen proteins were calculated according to the following equation. […]
# [4] = tested on: Pseudomonas aeruginosa (clinical strain 6); assay: MIC measurement, broth microdilution; assay type: cell-based; settings: 37° C. for 20 hours; tested twice, first/second value where not matched
# Fusarium solani = assay type: cell-based; settings: 37° C. for 20 hours; tested twice, first/second value where not matched
# Procedure: as §1, §2
# Trichophyton rubrum = assay type: cell-based; settings: 37° C. for 20 hours; tested twice, first/second value where not matched
# Procedure: as §1, §2
# [5] = tested on: Pseudomonas aeruginosa (clinical strain 8); assay: MIC measurement, broth microdilution; assay type: cell-based; settings: 37° C. for 20 hours; tested twice, first/second value where not matched
# [6] = Stability in rat serum (HPLC); assay type: in vitro ADME; settings: 37° C.
# Procedure: The stability of the polypeptides in serum was evaluated. In human serum (purchased from KAC Co., Ltd.), or in rat serum obtained by collecting blood from a rat, then leaving the collected blood to stand at room temperature followed by centrifugation, each of the peptides was dissolved so as to attain a final concentration of 500 μg/mL, and the obtained solutions were left to stand at 37° C. After leaving to stand for 3 min or 10 min, these solutions were subjected to HPLC chromatogram analysis to detect peaks of the decomposition products, and calculate the ratio of the concentration of the peptides which remained in the solutions relative to the starting concentration. In addition, the half-lives of the peptides in serum were also calculated.
# [7] = tested on: decubitus model, hairless rats; assay: Healing effect on decubituses; assay type: in vivo, rat; settings: 0.2 μg/uL (4 μg/wound)
# Procedure: In order to confirm the healing effect on a decubitus, one of skin ulcers, a decubitus model was produced using 7-week old male hairless rats (HWY/slc), and the healing effect of the polypeptides of the present invention was examined. A pair of magnets (φ10×5 mm; available from AZBIO KENIS; rare earth magnets; Type: KD-2; Code: 3-118-119; and, Magnetic Flux Density: 350 mT) was contacted to the skin of the back of each rat for 8 hours to induce a decubitus. On the day after inducing the decubitus, the necrotic skin was surgically removed to obtain a decubitus model. After producing the decubitus model, the test substance was administered onto the wound site, and a covering was used to cover over that (Day 0). Only a covering was used in the Control. Thereafter, on every measurement day, the test substance was administered once a day, and the change of the area of the wound was measured by calculating measured values from a digital caliper and digital images. The concentration of the test substances were individually 0.2 μg/uL (4 μg/wound). The area where the burns had still not healed was measured to calculate the ratio of it relative to the area where the burns were created (Day 0).
smiles,measurement,setting,value
CC[C@H](C)[C@H](NC(=O)[C@H](CC(C)C)NC(=O)[C@H](CCCCN)NC(=O)[C@@H](N)CC(C)C)C(=O)N[C@@H](Cc1ccccc1)C(=O)N[C@@H](CC(C)C)C(=O)N[C@@H](Cc1c[nH]cn1)C(=O)N[C@@H](CCCNC(=N)N)C(=O)N[C@@H](CC(C)C)C(=O)N[C@@H](CCCCN)C(=O)N[C@@H](CCCNC(=N)N)C(=O)N[C@@H](CCSC)C(=O)N[C@@H](CCCNC(=N)N)C(=O)N[C@@H](CCCCN)C(=O)N[C@@H](CCCNC(=N)N)C(=O)N[C@@H](CC(C)C)C(=O)N[C@H](CCCCN)C(=O)N[C@@H](CCCNC(=N)N)C(=O)N[C@@H](CCCCN)C(N)=O [SR-08] (H-LKLIFLHRLKRMRKRL[dK]RK-NH2; N-terminus assumed),"MIC, Staphylococcus epidermidis",[1],8> μg/mL
same,"MIC, Escherichia coli",Escherichia coli,32/64
same,"MIC, Pseudomonas aeruginosa (clinical strain 9)",[2],16/64
same,"MIC, MSSA (clinical strain 1)",MSSA (clinical strain 1),16/32
same,Collagen production of fibroblasts (FIG. 2),[3],had an effect to induce collagen production of the fibroblasts
same,"MIC, Pseudomonas aeruginosa (clinical strain 6)",[4],16/32
same,"MIC, Fusarium solani",Fusarium solani,4/8
same,"MIC, Trichophyton rubrum",Trichophyton rubrum,128/64
same,"MIC, Pseudomonas aeruginosa (clinical strain 8)",[5],16/32
same,"Ratio of peptide remaining relative to the starting concentration, rat serum, 0 min","[6]; 500 μg/mL, 0 min",100
same,"remaining at 0.05 h, 500 μg/mL","[6]; rat, rat serum, 3 min, read-out: Ratio of peptide remaining relative to the starting concentration, rat serum, 3 min",87%
same,"remaining at 10 min, 500 μg/mL","[6]; rat, rat serum, 10 min, read-out: Ratio of peptide remaining relative to the starting concentration, rat serum, 10 min",86.9%
same,half-life,"[6]; rat, serum, 500 μg/mL",1 h
same,"Healing effect on decubitus (unhealed area ratio, FIGS. 16 and 17)",[7]; once a day,showed a therapeutic effect also in decubituses
same,"Ratio of remaining wound area on Day 12, Mean Value","[7]; decubitus model, Day 12, Control Group 4.516729",0.7902
